Test results taken from US20230255954A1, “INTERLEUKIN 33 (IL-33) INHIBITION FOR TREATMENT OF CANCER, FIBROSIS AND INFLAMMATION” (The General Hospital Corporation, priority 2020, published 2023).

Legend:
[1] = tested on: DMBA/TPA skin tumors in WT and K14-IL33tg,ST2KO mice; test: DMBA/TPA skin carcinogenesis protocol with SB431542; format: in vivo, mouse
Protocol: For DMBA/DNFB carcinogenesis protocol (Ameri et al., 2019), four- to six-week-old male and female mice were shaved on their abdomen and sensitized to 50 μL 0.5% DNFB. Two days later, mice were re-sensitized to 50 μL 0.25% DNFB on the abdomen. Five days later, mice were treated with […] 7,12-dimethylbenz(a)anthracene (DMBA, Millipore Sigma, catalog no. D3254) in 200 μL acetone on their back skin. After a week, mice were challenged with 100 μL 0.25% DNFB on their back skin, which was continued three times per week for 30 weeks at the dosage that maintained mild erythematous dermatitis in WT mice. Skin rash and tumor development were monitored and recorded weekly over the duration of the study. For DMBA/TPA carcinogenesis protocol, mice were treated with 6 μg 12-O-tetradecanoylphorbol-13-acetate (TPA, Millipore Sigma, catalog no. P1585) in 200 μL acetone instead of DNFB in DMBA/DNFB protocol without abdominal sensitization.
(§1) To inhibit the TGF-β/SMAD signaling pathway (Mordasky Markell et al, 2010), mice were treated with 10 μM SB431542 (Millipore Sigma, catalog no. 301836-41-9) in 200 μL acetone or 200 μL acetone alone to their back skin twice a week. SB431542/acetone treatments were given in between TPA or DNFB doses.
(§2) Tissue samples were collected and fixed in 4% paraformaldehyde (Millipore Sigma, catalog no. P6148) overnight at 4° C. Next, tissues were dehydrated in ethanol, processed and embedded in paraffin. 5 μm sections paraffin-embedded tissues were placed on slides, deparaffinized and stained with H&E. For immunohistochemistry, antigen retrieval was performed in 500 μL of antigen unmasking solution (VECTOR Laboratories, Burlingame, Calif., catalog no. H3300) diluted in 50 mL water using Cuisinart pressure cooker for 20 min at high pressure. Slides were washed three times for three minutes each in 1×TBS with 0.025% Triton X-100. Sections were blocked with 1% bovine serum albumin (Thermo Fisher Scientific, catalog no. BP1600) and 5% goat serum (Millipore Sigma, catalog no. G9023) for 1 hour. Slides were stained overnight at 4° C. with a primary antibody diluted in TBS containing 1% BSA (Table A). The following day, slides were washed as above and incubated in 100 μL biotinylated secondary antibody (VECTOR Laboratories, catalog no. PK-6200) for 30 min. After washing, slides were incubated with 100 μL mixture of reagent A and B from VECTASTAIN Elite ABC universal kit Peroxidase (VECTOR Laboratories, catalog no. PK-6200) for 30 min. After washing, slides were incubated with 100 μL ImmPACT DAB chromogen stating (VECTOR Laboratories, catalog no. SK-4105) for a few minutes. Finally, slides were dehydrated in ethanol and xylene and mounted with a coverslip using 3 drops of mounting media. For immunofluorescence staining, rehydrated tissue sections were permeated with 1×PBS supplemented with 0.2% Triton X-100 for 5 min. Antigen retrieval was performed similar to immunohistochemistry. Slides were washed three times for three minutes each in 1×PBS with 0.1% TWEEN20. Sections were blocked with 1% bovine serum albumin and 5% goat serum for 1 hour. The slides were stained overnight at 4° C. with primary antibodies (Table A). The following day, slides were washed as above and incubated for two hours at room temperature with secondary antibodies conjugated to fluorochromes (Table A). Next, slides were incubated with 1:2000 DAPI (Thermo Fisher Scientific, catalog no. D3571) for five minutes at room temperature, then washed as above. Slides were mounted with Prolong Gold Antifade Reagent (Thermo Fisher Scientific, catalog no. P36930). The number of positive cells was counted in randomly selected high power field (HPF, 200× magnification) images in a blinded manner by a trained investigator. Clinical samples were reviewed by a pathologist.

Pam212 cells [2] = test: Pam212 proliferation assay (CellTiter 96); format: cell-based, mouse; conditions: 10 μM SB431542 for 3 hours; to the same degree as knocking down IL-33
Protocol: Pam212 cells were transfected with siIl33 (QIAGEN, catalog no. SI00870443) or siCon (QIAGEN, catalog no. 1022076) using Lipofectamine RNAiMax Transfection reagent (Thermo Fisher Scientific, catalog no. 13778075) according to the manufacturer's instructions. The following day, cells were divided into 96 well plates with a serial dilution of cells. The next day, the cells were treated with 5 nM of TGF-β (Cell Signaling Technology, catalog no. 5231LF) or 10 μM of SB431542 for 3 hours. After incubation, the proliferation assay was performed by CellTiter 96 Non-radioactive Cell proliferation assay (Promega, Madison, Wis., catalog no. G4001) according to the manufacturer's instructions. O.D was recorded as the measure of cell proliferation in each well. Absorbance (O.D) reading is directly proportional to the cell proliferation in each well.

Pam212 cells [3] = test: Ki67+ proliferating Pam212 cells; format: cell-based, mouse
[4] = tested on: DNFB-treated WT and IL-33KO mice skin; test: DNFB chronic skin inflammation with SB431542; format: in vivo, mouse; conditions: 22 days
Protocol: Four- to six-week-old male and female mice were shaved on their abdomen and sensitized to 50 μL 0.5% 1-Fluoro-2,4-dinitrobenzene (DNFB, Millipore Sigma, St. Louis, Mo., catalog no. 42085) dissolved in acetone plus olive oil at a 3:1 ratio (refer to as acetone). Two days after first sensitization, mice were re-sensitized to 50 μL 0.25% DNFB on their abdomen. After 5 days, mice were challenged with 100 μL 0.25% DNFB on their back skin, which was repeated three times per week for 22 days. The skin rash was monitored over the duration of the study.
as §1
as §2, with “Sections were blocked with 1% bovine serum albumin and 5% goat serum for 1 hour. The slides were stained overnight at 4° C. with primary antibodies (Table A). The following day, slides were washed as above and incubated for two hours at room temperature with secondary antibodies conjugated to fluorochromes (Table A). Next, slides were incubated with 1:2000 DAPI (Thermo Fisher Scientific, catalog no. D3571) for five minutes at room temperature, then washed as above. Slides were mounted with Prolong Gold Antifade Reagent (Thermo Fisher Scientific, catalog no. P36930).” left out, “Clinical samples were reviewed by a pathologist.” left out

[5] = DMBA/TPA-treated K14-IL33tg,ST2KO skin, vs acetone-treated controls
[6] = K14-IL33tg,ST2KO mice, DMBA/TPA, vs acetone-treated
[7] = WT mice, 30-week DMBA/TPA treatment

For `NC(=O)c1ccc(-c2nc(-c3ccc4c(c3)OCO4)c(-c3ccccn3)[nH]2)cc1` [SB431542], the “apoptosis (cleaved caspase-3)” value ([1]; DMBA/TPA-treated K14-IL33tg,ST2KO skin) was “without impacting”, the “number of Ki67+ epidermal keratinocytes” value [1, 5] was “reduced” and the “number of p-SMAD2/3+ epidermal keratinocytes” value [1, 5] was “reduced”. For the same compound, the “number of skin tumors” value [1, 6] was “significantly fewer”, the tumor latency [1, 6] was “markedly increased” and the skin tumor size ([1]; K14-IL33tg,ST2KO mice, DMBA/TPA, vs controls) was “smaller”. The endpoint tumor volumes [1, 7] was “no significant impact”, the skin tumor onset [1, 7] was “no significant impact” and the “tumor numbers over time” value [1, 7] was “no significant impact”. The Pam212 cell proliferation (Pam212 cells [2]) was “reduced”, the “Ki67+ proliferating cells” value (Pam212 cells [3]) was “significantly reduced” and the epidermal hyperplasia ([4]; DNFB-treated IL-33KO mice) was “no impact”. The keratinocyte proliferation ([4]; DNFB-treated IL-33KO mice) was “no impact”, the keratinocyte proliferation ([4]; DNFB-treated WT mice) was “markedly decreased” and the epidermal hyperplasia ([4]; DNFB-treated WT mice, 10 μM SB431542 in 200 μL acetone twice a week) was “markedly decreased”.
